Where a name gives a salt, the structure may show the parent alone.
Experiments:
[1] = test system: sonic hedgehog pathway; test: Human hedgehog reporter assay Daoy-GliLuc (DGL); assay type: cell-based
Excerpt: (§1) Mouse (TM3: mouse Leydig cells; S12: mouse embryonic mesenchymal cells) and human (Daoy: human medulloblastoma cell; HepM: human embryonic palatal mesenchymal cell) cell lines are used to screen small molecules for their ability to modulate the activity of the sonic hedgehog pathway (Table 1, Table 2, and Table 3). Stable hedgehog pathway reporter cell lines are established by specific antibiotic selection following transfection of a reporter plasmid containing a luciferase gene located directly downstream from the gli promoter. Consequently, any observable changes in cellular luciferase activity may be attributed to changes in sonic hedgehog pathway activity in mouse and human cells, respectively, since gli is the major by-product of this pathway. To calculate activity, we generate an eleven point dose curve for each compound using 1:3 dilutions in 96 well assay plates. Each plate tested also contains low and high control to establish maximal pathway activation so to establish/compare a percentage activation of each tested compound (AMAX) on respective plates.
(§2) Stable hedgehog pathway reporter cell lines are established following specific antibiotic selection following transfection of a reporter plasmid
(§3) In short, typically cells are plated in MicroTiter-plates at 10,000-20,000 cells per well, in growth media (containing 10%-20% FBS). After 48-72 hrs (HGL and DGL respectively) the media in the assay plates is switched to low-serum containing media (0.5% FBS). At that time compounds are added (at 1-5 μM) to the assay plates, in the presence or absence of hedgehog protein (octyl-modified version; 1-5 ng/ml). After another 24 hrs of incubation, the media from the assay plates is discarded and replaced with luciferase assay-mix. Subsequently, plates are incubated at RT for ˜15-30 mins and then read in a luminometer. [note: addition of the Hedgehog protein, although not critical, will sensitize the assay allowing the identification of weak actives].

[2] = test system: sonic hedgehog pathway; test: Hedgehog reporter assay (gli-luciferase) in S12 cells; assay type: cell-based; settings: S12 mouse embryonic mesenchymal cells
Excerpt: as §1, with “respective plates. Also we calculate EC50 values, or a concentration where the pathway will be exactly 50% activated, for each tested compound to determine potency. In these cell lines, compounds that register >20% AMAX values are considered active.” for “respective plates.”
as §2, §3

[3] = Daoy human medulloblastoma cells, gli-luciferase reporter, read-out: Human Daoy (Gli-Luc) Avg. EC50
[4] = Daoy human medulloblastoma cells, gli-luciferase reporter, read-out: Daoy Avg. EC50
[5] = Homo sapiens, Daoy, read-out: Human Daoy (Gli-Luc) Avg. EC50 (nM)

| SMILES | EC50 [1, 3] | EC50 ([2]; read-out: Mouse S12 Avg. EC50) | EC50 [1, 4] | EC50 ([2]; read-out: S12 Avg. EC50) | EC50 [1, 5] |
| --- | --- | --- | --- | --- | --- |
| CNC1CCC(N(Cc2cc(-c3ccc(S(N)(=O)=O)cc3)ccc2OC)C(=O)c2sc3c(F)ccc(F)c3c2Cl)CC1 (stereo not drawn) [Compound 388, 3-Chloro-4,7-difluoro-benzo[b]thiophene-2-carboxylic acid(4-methoxy-4′-sulfamoyl-biphenyl-3-ylmethyl)-(4-methylamino-cyclohexyl)-amide hydrochloride] | < 50 nM | < 50 nM | – | – | – |
| CNC1CCC(N(Cc2cc(-c3ccc(CS(C)(=O)=O)cc3)ccc2OC)C(=O)c2sc3c(F)ccc(F)c3c2Cl)CC1 (stereo not drawn) [Compound 369, 3-Chloro-4,7-difluoro-benzo[b]thiophene-2-carboxylic acid(4′-methanesulfonylmethyl-4-methoxy-biphenyl-3-ylmethyl)-(4-methylamino-cyclohexyl)-amide hydrochloride] | < 50 nM | < 50 nM | – | – | – |
| CNC1CCC(N(Cc2cc(-c3ccc(N(C)S(C)(=O)=O)cc3)ccc2OC)C(=O)c2sc3c(F)ccc(F)c3c2Cl)CC1 (stereo not drawn) [Compound 371, 3-Chloro-4,7-difluoro-benzo[b]thiophene-2-carboxylic acid[4′-(methanesulfonyl-methyl-amino)-4-methoxy-biphenyl-3-ylmethyl]-(4-methylamino-cyclohexyl)-amide hydrochloride] | < 50 nM | < 50 nM | – | – | – |
| CNC1CCC(N(Cc2cc(-c3ccnc(F)c3)ccc2OC)C(=O)c2sc3cccc(F)c3c2Cl)CC1 (stereo not drawn) [Compound 385, 3-Chloro-4-fluoro-benzo[b]thiophene-2-carboxylic acid[5-(2-fluoro-pyridin-4-yl)-2-methoxy-benzyl]-(4-methylamino-cyclohexyl)-amide] | < 50 nM | < 50 nM | – | – | – |
| CN[C@H]1CC[C@H](N(Cc2cc(-c3cncc(F)c3)ccc2OC)C(=O)c2sc3cccc(F)c3c2Cl)CC1 [Compound 383, 3-chloro-4-fluoro-N-(5-(5-fluoropyridin-3-yl)-2-methoxybenzyl)-N-((1s,4s)-4-(methylamino)cyclohexyl)benzo[b]thiophene-2-carboxamide] | < 50 nM | < 50 nM | – | – | – |
| CN[C@H]1CC[C@H](N(Cc2cc(-c3cccnc3F)ccc2OC)C(=O)c2sc3c(F)ccc(F)c3c2Cl)CC1 [Compound 378, 3-Chloro-4,7-difluoro-benzo[b]thiophene-2-carboxylic acid[5-(2-fluoro-pyridin-3-yl)-2-methoxy-benzyl]-(4-methylamino-cyclohexyl)-amide] | < 50 nM | < 50 nM | – | – | – |
| COc1ccc(-c2cncc(F)c2)cc1CN(C(=O)c1sc2c(F)ccc(F)c2c1Cl)[C@H]1CC[C@H](N)CC1 [Compound 416] | – | – | 50 to 250 nM | < 50 nM | – |
| CN[C@H]1CC[C@@H](N(Cc2cc(OC)cc(-c3ccncc3)c2)C(=O)C2=C(Cl)c3c(F)ccc(F)c3C2)CC1 [Compound 394, 3-Chloro-4,7-difluoro-benzo[b]thiophene-2-carboxylic acid(3-methoxy-5-pyridin-4-yl-benzyl)-(4-methylamino-cyclohexyl)-amide bis(trifluoroacetate)] | < 50 nM | < 50 nM | – | – | – |
| C=Cc1ccc(-c2ccc(OC)c(CN(C(=O)c3sc4c(F)ccc(F)c4c3Cl)[C@H]3CC[C@H](N)CC3)c2)cc1 [Compound 393, N-((1r,4r)-4-aminocyclohexyl)-3-chloro-4,7-difluoro-N-((4-methoxy-4′-vinylbiphenyl-3-yl)methyl)benzo[b]thiophene-2-carboxamide] | 50 to 250 nM | 50 to 250 nM | – | – | – |
| CNC1CCC(N(Cc2cc(-c3ccncc3)ccc2C)C(=O)c2sc3c(F)ccc(F)c3c2Cl)CC1 (stereo not drawn) [Compound 392, 3-Chloro-4,7-difluoro-benzo[b]thiophene-2-carboxylic acid (4-methylamino-cyclohexyl)-(2-methyl-5-pyridin-4-yl-benzyl)-amide bis(trifluoroacetate)] | < 50 nM | < 50 nM | – | – | – |
| CN[C@H]1CC[C@H](N(Cc2cc(-c3ccc(F)nc3)ccc2OC)C(=O)c2sc3c(F)ccc(F)c3c2Cl)CC1 [Compound 379, 3-Chloro-4,7-difluoro-benzo[b]thiophene-2-carboxylic acid[5-(6-fluoro-pyridin-3-yl)-2-methoxy-benzyl]-(4-methylamino-cyclohexyl)-amide] | < 50 nM | < 50 nM | – | – | – |
| CNC1CCC(N(Cc2cc(-c3ccc(S(=O)(=O)N(C)C)cc3)ccc2OC)C(=O)c2sc3c(F)ccc(F)c3c2Cl)CC1 (stereo not drawn) [Compound 391, 3-Chloro-4,7-difluoro-benzo[b]thiophene-2-carboxylic acid (4′-dimethylsulfamoyl-4-methoxy-biphenyl-3-ylmethyl)-(4-methylamino-cyclohexyl)-amide trifluoroacetate] | – | < 50 nM | – | – | < 50 nM |
| CNC1CCC(N(Cc2cc(-c3cc[n+]([O-])cc3)ccc2OC)C(=O)c2sc3c(F)ccc(F)c3c2Cl)CC1 (stereo not drawn) [Compound 374, 4-(3-((3-chloro-4,7-difluoro-N-((1s,4s)-4-(methylamino)cyclohexyl)benzo[b]thiophene-2-carboxamido)methyl)-4-methoxyphenyl)pyridine 1-oxide] | < 50 nM | < 50 nM | – | – | – |
| CNC1CCC(N(Cc2cc(-c3ccccc3SC)ccc2OC)C(=O)c2sc3c(F)ccc(F)c3c2Cl)CC1 (stereo not drawn) [Compound 408, 3-Chloro-4,7-difluoro-benzo[b]thiophene-2-carboxylic acid (4-methoxy-2′-methylsulfanyl-biphenyl-3-ylmethyl)-(4-methylamino-cyclohexyl)-amide hydrochloride] | – | – | 250 to 1000 nM | 250 to 1000 nM | – |
| COc1ccc(-c2cccnc2)cc1CN(C(=O)c1sc2cccc(F)c2c1Cl)[C@H]1CC[C@H](N)CC1 [Compound 410, 3-Chloro-4-fluoro-benzo[b]thiophene-2-carboxylic acid(4-amino-cyclohexyl)-(2-methoxy-5-pyridin-3-yl-benzyl)-amide] | – | – | < 50 nM | < 50 nM | – |
| CCc1ccc(-c2ccncc2)cc1CN(C(=O)C1=C(Cl)c2c(F)ccc(F)c2C1)[C@H]1CC[C@@H](NC)CC1 [Compound 395, 3-Chloro-4,7-difluoro-benzo[b]thiophene-2-carboxylic acid(2-ethyl-5-pyridin-4-yl-benzyl)-(4-methylamino-cyclohexyl)-amide dihydrochloride] | 50 to 250 nM | 50 to 250 nM | – | – | – |
| COc1ccc(-c2ccc(S(C)(=O)=O)cc2)cc1CN(C(=O)c1sc2c(F)ccc(F)c2c1Cl)C1CCC(N)CC1 (stereo not drawn) [Compound 390, 3-Chloro-4,7-difluoro-benzo[b]thiophene-2-carboxylic acid (4-amino-cyclohexyl)-(4′-methanesulfonyl-4-methoxy-biphenyl-3-ylmethyl)-amide hydrochloride] | – | < 50 nM | – | – | < 50 nM |
| CNC1CCC(N(Cc2cc(-c3ccc(NS(C)(=O)=O)cc3)ccc2OC)C(=O)c2sc3c(F)ccc(F)c3c2Cl)CC1 (stereo not drawn) [Compound 370, 3-Chloro-4,7-difluoro-benzo[b]thiophene-2-carboxylic acid (4′-methanesulfonylamino-4-methoxy-biphenyl-3-ylmethyl)-(4-methylamino-cyclohexyl)-amide hydrochloride] | – | < 50 nM | – | – | < 50 nM |
| CN[C@H]1CC[C@H](N(Cc2cc(-c3cncc(F)c3)ccc2OC)C(=O)c2sc3c(F)ccc(F)c3c2Cl)CC1 [Compound 380, 3-Chloro-4,7-difluoro-benzo[b]thiophene-2-carboxylic acid[5-(5-fluoro-pyridin-3-yl)-2-methoxy-benzyl]-(4-methylamino-cyclohexyl)-amide] | < 50 nM | < 50 nM | – | – | – |
| CNC1CCC(N(Cc2cc(-c3ccncc3F)ccc2OC)C(=O)c2sc3cccc(F)c3c2Cl)CC1 (stereo not drawn) [Compound 387, 3-Chloro-4-fluoro-benzo[b]thiophene-2-carboxylic acid[5-(3-fluoro-pyridin-4-yl)-2-methoxy-benzyl]-(4-methylamino-cyclohexyl)-amide] | < 50 nM | < 50 nM | – | – | – |
| CCS(=O)(=O)c1ccc(-c2ccc(OC)c(CN(C(=O)c3sc4c(F)ccc(F)c4c3Cl)C3CCC(NC)CC3)c2)cc1 (stereo not drawn) [Compound 389, 3-Chloro-4,7-difluoro-benzo[b]thiophene-2-carboxylic acid (4′-ethanesulfonyl-4-methoxy-biphenyl-3-ylmethyl)-(4-methylamino-cyclohexyl)-amide hydrochloride] | – | < 50 nM | – | – | < 50 nM |

From US20120245184A1 (Aderans Research Institute, Inc., priority 2006, published 2012)
